The results in this text go back to ChEMBL document CHEMBL3988442, “University of Dundee, Small-Polar-MMV Screening Library” (2021).

The term IC50 denotes the concentration needed to halve the response being measured.

SMILES strings stand for the structures. Where only a bound is given, the exact number is not on record here.

The target in this experiment is Lysine--tRNA ligase (Plasmodium falciparum (isolate 3D7), UniProt Q8IDJ8). Put plainly: Pf-KRS-1 (Lysyl-RNA Synthetase-1, KRS-1, cytosolic KRS) from Plasmodium falciparum. Inhibitor assay, 384 well plate, luminescence read. It counts as functional.
Chain of Lysine--tRNA ligase (Q8IDJ8 whole entry): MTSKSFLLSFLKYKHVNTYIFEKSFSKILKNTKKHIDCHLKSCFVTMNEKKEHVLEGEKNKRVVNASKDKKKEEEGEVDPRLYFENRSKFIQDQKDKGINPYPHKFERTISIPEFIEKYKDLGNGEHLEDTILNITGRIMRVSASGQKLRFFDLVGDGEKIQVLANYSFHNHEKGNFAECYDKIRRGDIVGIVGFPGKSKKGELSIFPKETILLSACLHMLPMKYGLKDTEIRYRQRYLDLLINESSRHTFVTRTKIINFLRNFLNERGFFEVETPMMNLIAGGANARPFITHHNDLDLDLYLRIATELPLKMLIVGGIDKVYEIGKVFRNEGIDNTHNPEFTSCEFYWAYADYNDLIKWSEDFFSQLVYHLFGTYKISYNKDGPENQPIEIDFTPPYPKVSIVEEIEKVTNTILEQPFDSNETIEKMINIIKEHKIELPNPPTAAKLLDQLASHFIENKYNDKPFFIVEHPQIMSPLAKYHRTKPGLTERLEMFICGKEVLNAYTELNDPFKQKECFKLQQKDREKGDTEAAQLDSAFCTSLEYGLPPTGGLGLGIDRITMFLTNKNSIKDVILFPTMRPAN
`O=C(c1cnccn1)N1C[C@@H](c2ccccc2)[C@@]2(CCNC2=O)C1` gave a half-maximal inhibitory concentration (IC50) of more than 50.1 µM.
The same measure for `c1cnc(N2CCCC(NCc3ccc(-n4ccnc4)cc3)C2)nc1` (configuration not stated): more than 50.1 µM; for `CN1C(=O)CC2(CCN(S(=O)(=O)c3cccs3)CC2)c2ccccc21`: more than 50.1 µM.
`Cc1cnn(CCNCC(O)COc2ccc(Cl)cc2)c1` (configuration not stated) had an IC50 of more than 50.1 µM.
`O=C(c1cnc(-c2cccs2)s1)N1CCCC(n2cccn2)C1` (configuration not stated) had a half-inhibitory concentration (IC50) of more than 50.1 µM.
As to `COc1ccc(OC)c(C(=O)N(C)Cc2ncc(C)c(OC)c2C)c1`, the concentration for half-maximal inhibition (IC50) is more than 50.1 µM.
The value for `Cc1ccc(C2(O)CCN(Cc3nc(C)n4ccccc34)CC2)nc1` was more than 50.1 µM; that for `O=C(NCc1csc(Br)c1)c1ccncc1` was more than 50.1 µM.
On to `COc1cccc(COCC(=O)N2CCCC(n3cccn3)C2)c1` (configuration not stated), for which the IC50 is more than 50.1 µM.
The value for `Clc1snnc1CN1CCCCC1Cn1cncn1` (configuration not stated) was more than 50.1 µM; that for `COc1nccnc1N1CCC2(CC1)[C@H](O)C[C@@H]2OCCN(C)C` was more than 50.1 µM; that for `Cc1cc(C(N)=O)ccc1NC(=O)c1nc(N2CCCC2)ncc1Cl` was more than 50.1 µM.
The same measure for `Cc1ccc(O)c(CNCC(C)c2nc3ccccc3o2)n1` (configuration not stated): more than 50.1 µM.
The same measure for `CCOCC1CN(Cc2ccc(OC)cc2)Cc2nn(CC3CC3)cc21` (configuration not stated): more than 50.1 µM; for `Cc1nnc(N2CCC(CCN(C)C)CC2)c(C#N)c1C`: more than 50.1 µM; for `O=C(C(O)c1ccccc1Cl)N1CCCN(Cc2cccnc2)CC1` (configuration not stated): more than 50.1 µM.
With `CC(C)C1CN(C(=O)c2cc(=O)[nH]c(=O)[nH]2)CCCN1CC1CC1` (configuration not stated), the IC50 is more than 50.1 µM.
As to `Cc1ncc2c(n1)CN(CC1CCCCO1)CC2` (configuration not stated), the concentration for half-maximal inhibition (IC50) was 35.9 µM.
The same measure for `CCOCC1CN(C(=O)c2cnoc2C)Cc2cn(CC3CC3)nc21` (configuration not stated): more than 50.1 µM; for `Cc1csc(CNC(=O)NCc2ccc3c(c2)OCCO3)n1`: more than 50.1 µM; for `N#Cc1cccc(CN2CCN(Cc3cscn3)CC2)c1`: more than 50.1 µM.
The same measure for `O=c1c(CN2CCCCC2)coc2ccc(Cl)cc12`: more than 50.1 µM.
The value for `Cc1ccc(CN2CCN(Cc3ccncc3)[C@@H]3CS(=O)(=O)C[C@@H]32)cc1` was more than 50.1 µM.
The molecule `Cc1cc2ccccc2n1CCC(=O)N1CCC[C@H]1C(N)=O` had an IC50 of more than 50.1 µM.
As for `CCN(C)C(=O)c1cc(-c2ccn(C(C)C)n2)n2ccccc12`, the concentration for half-maximal inhibition (IC50) was more than 50.1 µM.
The value for `O=C(CC1CCCC1)N1CC[C@H]2[C@H]1CCN2c1nncs1` was more than 50.1 µM; that for `O=C(COCc1ccccc1Cl)N1CCN(c2cnccn2)CC1` was more than 50.1 µM; that for `Cc1cc(C2CCC2)nc(N2CCC3(CC2)OCCCC3O)n1` (configuration not stated) was more than 50.1 µM.
The value for `O=C(C[S+]([O-])Cc1c(Cl)cccc1Cl)N1CCc2sccc2C1` (configuration not stated) was more than 50.1 µM.
The same measure for `NS(=O)(=O)c1ccc(NC(=O)CSc2ccc3c(c2)CCC3)cc1`: more than 50.1 µM; for `CC1CCC(N2Cc3nc(N)ncc3C2=O)CC1` (configuration not stated): more than 50.1 µM.
Turning to `Cc1nnc(NCCC(=O)N(C)Cc2ccccc2)c(C#N)c1C`, the IC50 is more than 50.1 µM.
The same measure for `COc1c(F)ccc(C(=O)N2CC[C@H](CO)[C@@H](O)C2)c1F`: more than 50.1 µM; for `CC(=O)c1cnc(N(C)Cc2cc(C)cc(C)n2)nc1C`: more than 50.1 µM.
The value for `CN(C)CCO[C@H]1C[C@@H](O)C12CCN(c1nccc3ccccc13)CC2` was more than 50.1 µM; that for `CC(C)c1nccn1C1CCCN(C(=O)c2cccc3[nH]ncc23)C1` (configuration not stated) was more than 50.1 µM; that for `O=C([C@@H]1C[C@H]2[C@H](CCN2Cc2nccs2)O1)N1CCOCC1` was more than 50.1 µM.
The same measure for `CS(=O)(=O)c1ccc(CNC(=O)N2CCC(C(N)=O)C2)cc1` (configuration not stated): more than 50.1 µM.
Regarding `Cc1ccc(-n2nnc(C(=O)NCC3CCCCC3)n2)cc1`, the IC50 is more than 50.1 µM.
The same measure for `CCN(Cc1cccc(F)c1)c1ccc2nnnn2n1`: more than 50.1 µM; for `O=C(NCc1ccc(Cl)s1)c1ccc(N2CCOC2=O)cc1`: more than 50.1 µM; for `Cc1ccc(CS(=O)(=O)NCc2ccco2)cc1`: more than 50.1 µM.
